# According to a melting point compilation (Tetko et al.; mined from patent text by program, amines drawn as free bases though some values may be those of a salt):
row,melting point [°C],Structure (SMILES)
1,120 to 122,CCCNC(=O)c1cnc2ccccn2c1=O
2,219 to 220,CCn1nccc1NC(=O)c1cc(C(=O)OC)c(O)c2ncc(Cc3ccc(F)cc3)cc12
3,85 to 87,CCOP(=O)(OCC)C(Cc1cc(C)c(O)c(OC)c1)c1cccnc1 (stereo unspecified)
4,118 to 119,CC(C)C(=O)CNC(=O)c1ccc(Cl)cc1
5,223 to 233,O=C(O)[C@H](Cc1cncn1COCc1ccccc1)NS(=O)(=O)CCc1ccccc1
6,160 to 162,COC(=O)NN=C1CCCCC1=Cc1ccc(Cl)cc1
7,75 to 76,O=C(CCc1cccc(Oc2ccccc2)c1)c1ccc[nH]1
8,147 to 149,CCOC(=O)c1nc2ccc(N)cc2[nH]1
9,260,CCN(CC)CCC(=O)NC1c2ccccc2-c2[nH]c(=O)c3nccn3c21 (stereo unspecified)
10,189 to 192,Cc1c(NC(=O)c2ccc(-c3ccc(F)cc3)cc2)ccc2cc(C(C)O)cnc12 (stereo unspecified)
11,88 to 90,O=C(c1ccc(Cl)cc1)c1ccc(CBr)cc1Cl
12,115 to 117,CC(Cl)C(CC(=O)c1ccccc1)[N+](=O)[O-] (stereo unspecified)
13,184 to 186,COc1ccc(-c2ccc(C(=O)Nc3cc4ncc(CN5CCCC5)cc4cc3F)cc2)cc1
14,196 to 197,Cc1ccc(Cn2nnc(C(N)=O)c2N)cc1C(Cl)=C(Cl)Cl
15,190 to 191,CC(=O)Nc1cccc(NC(C)=O)c1
16,140,COCc1ccc2c(c1)C=Cc1cc(C)ccc1C2c1cn(Cc2nc(C(=O)O)cs2)c(=O)[nH]c1=S (stereo unspecified)
17,154,CCOC(OCC)c1cccc2c1Sc1c(C=O)cccc1N2C
18,134 to 135,OC/C=C/c1ccc(OCc2coc(-c3ccccc3)n2)c(F)c1
19,> 300,O=C(O)C=Cc1ccc(/C=C/c2ccncc2)cc1
20,39 to 41,CCCCOc1cc(CCC(=O)O)ccc1-c1cccc(CN(C)C(=O)c2ccc(OC)cc2)c1

row,melting point [°C],Structure (SMILES)
1,142,COc1ccccc1N1CCN(C(=O)[C@@H](Cc2cccnc2)NC(=O)OC(C)(C)C)CC1
2,154 to 155,COC(=O)C(Cc1ccc(OCCN(C)c2nc3ccccc3o2)cc1)OCC(=O)O (stereo unspecified)
3,68 to 72,Cc1cccc(C=CC(=O)C=Cc2cccc(C)c2)c1
4,94.5 to 97,N#CC1(c2ccc(Cl)cc2)CCC(=O)CC1
5,130,CC(C(=O)O)c1cccc(NC(=O)NCC(=O)N2[C@@H](c3cccc(F)c3F)SC[C@H]2C(=O)OC(C)(C)C)c1 (stereo partly specified)
6,108,COc1cccc(-c2ccc(C(O)C(F)(F)F)cc2)c1 (stereo unspecified)
7,165 to 167,CCOc1cc(C(=O)O)cc(N)c1Cc1ccccc1
8,219 to 221,COc1ccc(Sc2cncc3sc(C(N)=O)cc23)cc1
9,55 to 56,COC(=O)c1cc(CBr)ccc1[N+](=O)[O-]
10,196 to 198,CC(=O)Nc1ccc2oc3c(c2c1)CCCC3
11,78 to 80,CCOC(=O)N1CCN=C1CC(c1ccccc1)c1ccccc1
12,239 to 242,Cc1nc(NC(=O)c2ccccc2S(C)(=O)=O)sc1C(=O)NCc1ccccc1
13,111 to 133,N=C(N)N(CCCC(C=O)NC(=O)C1CCCN1C(=O)c1cc2ccccc2[nH]1)C(=O)OCc1ccccc1 (stereo unspecified)
14,138 to 139,COc1ccc(NC2C3CCC(CC3=O)C2(C)c2ccccc2)cc1 (stereo unspecified)
15,170,O=C(Nc1cccc2[nH]ccc12)c1ccccc1OCC(O)CN1CCN(C(c2ccccc2)c2ccccc2)CC1 (stereo unspecified)
16,168,COC(=O)C(=Cc1cccc(-c2ccc(Cl)cc2)c1)NC(C)=O
17,131 to 132,O=C(c1ccc(F)nc1)N1CCC[C@H](c2nc(-c3ccc[nH]3)no2)C1
18,216 to 218,O=S(=O)(Cc1ccccc1)n1c2cc(O)c(O)cc2c2ccc(O)c(O)c21
19,126 to 128,O=C(O)CN1CCC(OC(c2ccc(F)cc2)c2ccc(F)cc2)CC1
20,174 to 176,Cc1cc2c(-c3ccccc3)c(NC(=O)N(C)Cc3ccccc3)n(C)c(=O)c2cc1C

row,melting point [°C],Structure (SMILES)
1,180,COc1ccc(C(=O)Nc2ccc3ccc(Oc4ccc(Cl)c(Cl)c4)nc3n2)cc1
2,125 to 130,CCOc1ccc2c(c1)C(c1ccccc1)C(=O)N2 (stereo unspecified)
3,64 to 66,O/N=C(\Sc1ccccc1)C(F)(F)F
4,160 to 162,CC(C)(O)COCc1onc(-c2ccccc2)c1-c1ccc(S(N)(=O)=O)cc1
5,226 to 228,Cc1c(CC2=C(O)CCC2=O)ccc2ccccc12
6,53 to 54,COc1ccc(C(C)(O)c2cc(OCc3ccccc3)ccc2OC)cn1 (stereo unspecified)
7,228 to 230,CC(C)(C)C(=O)c1c[nH]c2ncc(-c3cccc(NC4=NCCN4)c3)nc12
8,129 to 131,C=CCOc1nc(N(CC)Cc2cc(Br)ccc2OCc2ccccc2)ccc1C(=O)O
9,234 to 235,Cc1cc(-c2nc3cccnn3c2-c2ccnc(NC(=O)c3ccccn3)c2)ccc1F
10,133 to 136,COc1ccc(C2=NN(Cc3cccc(C(=O)O)c3)C(=O)[C@H]3CCCC[C@@H]23)cc1OC (relative stereo)
11,210 to 213,CCOc1cc2ncc(C#N)c(CC(=O)c3ccc(Br)cc3)c2cc1OCC
12,129 to 131,CC(C)(C)C(=O)Oc1ccc(-c2nnn(CCCCC(=O)O)n2)cc1
13,74.5 to 76,COc1ccc(C[C@H](C)NS(=O)(=O)c2ccccc2)cc1
14,85 to 86,CCOC(=O)/C=C(C)/C=C/C1=C(Br)CCC1
15,184 to 185,COc1cc2c3ccc(OC)c(OC)c3n(C(=O)c3ccccc3)c2cc1OC
16,183 to 184,CN1C(=O)c2ccccc2C(CCO)N1c1cccc([N+](=O)[O-])c1 (stereo unspecified)
17,133 to 135,CCc1nn(C2CCCC2)c2cc(C(=O)Nc3cccnc3)ccc12
18,215 to 217,NC(=O)NN=Cc1ccc(OC2CCCCC2)cc1
19,187 to 189,CC(C)c1ccc(S(=O)(=O)NC(=O)C(Oc2cc(OCc3ccsc3)ccc2C#N)c2ccccc2)cc1 (racemic)
20,180,"CC1SC(=O)NN=C1c1ccc2c(c1)CCCN2C(=O)c1ccc2c(c1)OCO2 (single isomer, unassigned; (-))"

# The next lines start with the compound.
row,Structure (SMILES),melting point [°C]
1,C#CCN1C(=O)NC(C)(C)C1=O,156 to 160
2,COc1cc(C(C)O)c(O)cc1OCCCN1CCC(c2noc3cc(F)ccc23)CC1 (stereo unspecified),156 to 158
3,C=CCNc1c(C(N)=O)cnc2cn[nH]c12,254 to 258
4,Cc1[nH]c(C=O)c(C)c1CCCO,85
5,COc1ccc(N2CCOCC2)c2sc(C(=O)NC3CCCCC3=O)nc12 (stereo unspecified),165
6,CCOC(=O)C(CC)(CC)CCS(N)(=O)=O,93 to 94
7,O=C(NC1CCC(CCN2CCC(c3cccc4c3CCO4)CC2)CC1)C1CCOC1 (racemic),211
8,CN(CCN1CCCCC1)S(=O)(=O)c1cc([N+](=O)[O-])ccc1Sc1cc(Cl)cc(Cl)c1,113 to 114
9,Cc1cc(F)c(N)cc1O,147
10,CC(C)(C)OC(=O)NC[C@H]1CN(c2ccc3c(c2)CCCc2cnoc2-3)C(=O)O1,180 to 184
11,CS(=O)(=O)c1ccc(-c2cc(C(=O)c3cc(-c4ccc(S(C)(=O)=O)cc4)c(N4CCOCC4)s3)sc2N2CCOCC2)cc1,235 to 236
12,CCOC(=O)c1c(CS(=O)c2nc3ccccc3[nH]2)nc2cc(OC)c(OC)cc2c1-c1ccc(OC)c(OC)c1 (stereo unspecified),160 to 161
13,N=C(O)c1cc(C(O)=NCCO)c(C(=O)O)cc1C(=O)O,279 to 280
14,COc1cc([N+](=O)[O-])c(F)cc1Cl,69 to 70
15,CCn1cc(C(=O)O)c(=O)c2cc(F)c(N3CCCC(CN)C3)nc21 (stereo unspecified),120 to 122
16,CCCc1nc2cnc3ccc([N+](=O)[O-])cc3c2s1,228 to 230
17,NC(=S)c1cc(Cl)c(Cl)c(Cl)n1,168 to 169
18,Cc1nnc(-c2ccccc2)c2nc(OCc3ncnn3C)c(C3CCC3)n12,160
19,O=C1c2ccc(O)cc2CCN1CCN1CCCC1,205 to 207
20,CCCCCN(C)C(=O)c1ccc(Cl)nn1,98 to 101
21,COc1cc(C(=O)P2(=O)Oc3ccccc3-c3ccccc32)cc(OC)c1OC (stereo unspecified),147 to 149

row,Structure (SMILES),melting point [°C]
1,COc1cc2[nH]c(=O)n(S(=O)(=O)c3ccc(Cl)cc3)c(=O)c2cc1OC,> 250
2,CCCCCN1Cc2cccc(Cl)c2S1(=O)=O,46 to 48
3,COC(=O)c1[nH]cc(Cc2ccsc2)c1N,108 to 110
4,COc1ccc(CC(C)NCC(O)c2ccccc2Cl)cc1OC (stereo unspecified),113 to 114
5,O=S(=O)(CCCCCl)c1ccccc1,55 to 58
6,COC(=O)CC(=O)c1cc(CN2CCOCC2)sc1Cl,67 to 68
7,CCCCc1ccc(CCc2cc3c(s2)-n2c(C)nnc2CN=C3c2ccccc2Cl)cc1,119 to 121
8,CC1(C)C(=O)Nc2ccc(C3=NNC(=O)CC3)cc21,> 300
9,CCC(CC)Nc1c([N+](=O)[O-])cc(C(C)C)c(CSC#N)c1[N+](=O)[O-],68 to 70
10,CC(=O)OC1CCC2(C)C(=CC=C3C2CCC2(C)C(C(C)CC#CC(C)(C)OC(C)=O)=CCC32)C1 (stereo unspecified),98 to 101
11,CCC(CCCc1cc(OC)c(OC)c(OC)c1)(c1cccs1)N(C)C (stereo unspecified),62 to 63
12,COc1cc(OC)nc(Cc2ccccc2NS(=O)(=O)C(F)(F)F)n1,99 to 100
13,CCC(CC)Nc1c(NCc2cc(C)cc(C#N)c2)c(=O)c1=O,248 to 250
14,CN1C(=O)C2C3C=CC(CCC3)C2(c2ccc(Cl)c(Cl)c2)C1=O (stereo unspecified),110 to 115
15,COc1cc2cc3c(=O)c(C#N)c[nH]c3cc2cc1O,> 300
16,Cc1c(C(=O)O)nnn1Cc1c(F)cccc1F,166 to 167
17,Cc1cc(Nc2cc(-c3cnc4cc[nH]c4c3)cn3ccnc23)nn1CCO,127 to 130
18,CCOC(=O)c1cn(CCCl)c2nc(N3CCN(C)CC3)ncc2c1=O,154 to 155
19,N#CC1OC(=O)c2c(F)ccc(F)c21 (stereo unspecified),87 to 89
20,CSc1cc(C(C)(C)C)c(O)c(C(C)(C)C)c1,69 to 71
